Structures are written as SMILES. Converted amounts (≈) assume the structure as drawn. Read-outs that look alike come from different tables or passages of the source.

One assay deals with Actinomyces pyogenes. Kind of assay: in vitro antibacterial MIC (tube dilution, 24 hours). The format is cell-based. The protocol: (§1) In Table I, below, the results of in vitro tests are summarized. For this test each organism is inoculated in a series of test tubes containing nutrient medium and varying concentrations of Antibiotic UK No.-61,689 to determine the minimal concentration of the compound in μg./ml. which inhibits the growth of the organism over a period of 24 hours (MIC).

In the next assay the test system is Treponema hyodysenteriae. The assay is described as above. The format is cell-based. To be noted: Brachyspira hyodysenteriae. How it is done:
as §1

A further assay has as its system E. brunetti. The experiment in a line: efficacy against coccidial infection in chickens (lesion scores). The settings on record: in diet of chickens at 15 to 120 ppm; six days.
The subject of a further assay is E. acervulina. The description is as above. To be noted: in diet of chickens at 15 to 120 ppm; five days.
The next assay has as its system E. maxima. Described as above. To be noted: in diet of chickens at 15 to 120 ppm; six days.
For a further assay, the system named is Eimeria tenella. The description is as above. To be noted: in diet of chickens at 15 to 120 ppm; six days.
A further assay has as its system E. necatrix. Described as above. The settings on record: in diet of chickens at 15 to 120 ppm; six days.
In the next assay the test system is rumen fluid. The experiment in a line: in vitro rumen technique, propionic acid production. The format is cell-based, cow. To be noted: 20 micrograms per milliliter, 39° C., about 16 hours, read-out: increase in the production of propionic acid over control solution. The protocol: The value of animal feeds has generally been determined directly by feeding the animal. British Patent Specification No. 1,197,826 details an in vitro rumen technique whereby the changes occurring in feed brought about by microorganisms are measured more readily and with great accuracy in the evaluation of animal feeds. This technique involves the use of an apparatus in which the digestive processes of the animals are conducted and studied in vitro. The animal feeds, rumen inoculum and various growth promotants are introduced into and withdrawn from a laboratory unit under carefully controlled conditions and the changes taking place are studied critically and progressively during the consumption of the feed by the microorganisms. […] The change in propionic acid content is expressed as percent of the propionic acid content found in the control rumen fluid. Long term in vivo feeding studies are used to show a reliable correlation between propionic acid increase in the rumen fluid and improved animal performance. […]
After incubation, 5 ml. of the sample is mixed with 1 ml. of 25% metaphosphoric acid. […] Samples are then analyzed by gas-liquid chromatography by the method of D. W. Kellog, J. Dairy Science, 52, 1690, 1969. Peak heights for acetic, propionic and butyric acids are determined for samples from untreated and treated incubation flasks.

In the next assay the test system is coccidial infections. The experiment in a line: activity against coccidial infections in poultry (lesion scores). The settings on record: in diet of chickens.
Another assay relates to Clostridium perfringens. The experiment in a line: microbe, parasite or virus in culture. The format is cell-based. To be noted: 24 h.

`COC1CCC(OC2CC(C3OC(C)(O)C(C)CC3C)OC2C2(C)CCC(C3(C)CCC4(CC(O)C(C)C(C(C)C5OC(O)(CC(=O)O)C(C)C(O)C5OC)O4)O3)O2)OC1C` (stereo not shown) [Antibiotic UK No.-61,689]: the MIC in the assay with Actinomyces pyogenes (Trueperella pyogenes, strain 14D002, read-out: MIC) stood at 0.39 µg/mL (≈ 0.447 µM); against Actinomyces pyogenes (strain 14D008), 0.39 µg/mL (≈ 0.447 µM); against Actinomyces pyogenes (strain 14D011), 0.39 µg/mL (≈ 0.447 µM); in the assay with Treponema hyodysenteriae (strain 94A001), 6.25 µg/mL (≈ 7.16 µM); against Treponema hyodysenteriae (strain 94A002), 6.25 µg/mL (≈ 7.16 µM); with Treponema hyodysenteriae (strain 94A007) it was 3.12 µg/mL (≈ 3.57 µM). For the same compound, the MIC against Treponema hyodysenteriae (strain 94A008) turned out to be 3.12 µg/mL (≈ 3.57 µM); with Clostridium perfringens (strain 10A006), 25 µg/mL (≈ 28.6 µM); against Clostridium perfringens (strain 10A009), 3.12 µg/mL (≈ 3.57 µM). The “controlling infections due to E. brunetti” value with E. brunetti is given as “effective in controlling infections”. Moreover, the “controlling infections due to E. acervulina” value in the assay with E. acervulina is “effective in controlling infections”. For the same compound, the “controlling infections due to E. maxima” value with E. maxima is reported as “effective in controlling infections”. The “controlling infections due to Eimeria tenella” value with Eimeria tenella was “effective in controlling infections”. Besides, the “controlling infections due to E. necatrix” value in the assay with E. necatrix is reported as “effective in controlling infections”. In addition, the activation at 20 µg/mL with rumen fluid is about 80%. The “activity against coccidial infections in poultry” value with coccidial infections is “excellent activity”.

These data come from patent US4992466A, “Polycyclic ether antibiotic” (Pfizer Inc., priority 1986, dated 1991).
